Measurements reported in ChEMBL document CHEMBL1201862, “PubChem BioAssay data set” (2004).
Calls of active or inactive are those of the source.

Experiments:
[1] = molecular target: Glyceraldehyde-3-phosphate dehydrogenase (Homo sapiens, UniProt P04406)
[2] = molecular target: T1, Heat shock factor protein 1 (Mus musculus, UniProt P38532); assay: enhancement of HSF1-driven luciferase signal – cell-based, NIH3T3, luminescence, dose retest, confirmation (AID 435004); type: functional;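 note: stress induced by proteasome inhibitor MG132 added 30 min after compound; luciferase reporter driven by HSF1 response element in NIH3T3 cells; actives raise luminescence as potentiators of the MG132 stress response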
T1 sequence (P38532 whole entry): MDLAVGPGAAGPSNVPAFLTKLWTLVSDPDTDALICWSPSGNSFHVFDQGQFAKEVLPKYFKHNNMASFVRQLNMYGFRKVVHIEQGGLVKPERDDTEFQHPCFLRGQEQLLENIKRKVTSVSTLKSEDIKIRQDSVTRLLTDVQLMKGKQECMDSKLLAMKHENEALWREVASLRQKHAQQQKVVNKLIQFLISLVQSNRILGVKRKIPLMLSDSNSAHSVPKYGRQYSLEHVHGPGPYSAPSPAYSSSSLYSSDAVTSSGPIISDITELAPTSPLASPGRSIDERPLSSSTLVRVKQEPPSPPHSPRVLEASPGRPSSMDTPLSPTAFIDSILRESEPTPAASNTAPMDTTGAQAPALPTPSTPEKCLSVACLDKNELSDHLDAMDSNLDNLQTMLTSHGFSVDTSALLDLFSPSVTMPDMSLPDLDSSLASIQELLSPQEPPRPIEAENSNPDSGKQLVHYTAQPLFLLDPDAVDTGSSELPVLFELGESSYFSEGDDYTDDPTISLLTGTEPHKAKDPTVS

[3] = molecular target: T2, Mannose-6-phosphate isomerase (Homo sapiens, UniProt P34949); assay: MPI inhibition at elevated mannose 6-phosphate – biochemical, fluorescence intensity, high mannose 6-phosphate, primary screen (AID 1220)
T2 sequence (P34949 whole entry): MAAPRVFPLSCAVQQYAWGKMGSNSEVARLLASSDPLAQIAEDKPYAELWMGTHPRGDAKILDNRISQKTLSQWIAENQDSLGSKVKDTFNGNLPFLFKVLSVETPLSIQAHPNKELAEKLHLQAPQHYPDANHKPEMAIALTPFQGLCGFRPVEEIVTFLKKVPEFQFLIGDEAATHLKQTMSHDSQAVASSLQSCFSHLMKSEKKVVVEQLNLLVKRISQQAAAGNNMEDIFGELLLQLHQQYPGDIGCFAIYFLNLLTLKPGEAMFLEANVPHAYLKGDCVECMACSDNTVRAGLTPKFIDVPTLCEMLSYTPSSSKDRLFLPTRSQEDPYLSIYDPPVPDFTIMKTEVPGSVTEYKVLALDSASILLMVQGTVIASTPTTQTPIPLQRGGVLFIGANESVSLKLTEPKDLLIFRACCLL

[4] = molecular target: T3, Short transient receptor potential channel 4 (Mus musculus, UniProt Q9QUQ5); assay: calcium entry via TRPC4 opening agents – cell-based, HEK293 TRPC4/mu-opioid, Fluo-4 calcium, dose response (AID 434937); type: functional
T3 sequence (Q9QUQ5 whole entry): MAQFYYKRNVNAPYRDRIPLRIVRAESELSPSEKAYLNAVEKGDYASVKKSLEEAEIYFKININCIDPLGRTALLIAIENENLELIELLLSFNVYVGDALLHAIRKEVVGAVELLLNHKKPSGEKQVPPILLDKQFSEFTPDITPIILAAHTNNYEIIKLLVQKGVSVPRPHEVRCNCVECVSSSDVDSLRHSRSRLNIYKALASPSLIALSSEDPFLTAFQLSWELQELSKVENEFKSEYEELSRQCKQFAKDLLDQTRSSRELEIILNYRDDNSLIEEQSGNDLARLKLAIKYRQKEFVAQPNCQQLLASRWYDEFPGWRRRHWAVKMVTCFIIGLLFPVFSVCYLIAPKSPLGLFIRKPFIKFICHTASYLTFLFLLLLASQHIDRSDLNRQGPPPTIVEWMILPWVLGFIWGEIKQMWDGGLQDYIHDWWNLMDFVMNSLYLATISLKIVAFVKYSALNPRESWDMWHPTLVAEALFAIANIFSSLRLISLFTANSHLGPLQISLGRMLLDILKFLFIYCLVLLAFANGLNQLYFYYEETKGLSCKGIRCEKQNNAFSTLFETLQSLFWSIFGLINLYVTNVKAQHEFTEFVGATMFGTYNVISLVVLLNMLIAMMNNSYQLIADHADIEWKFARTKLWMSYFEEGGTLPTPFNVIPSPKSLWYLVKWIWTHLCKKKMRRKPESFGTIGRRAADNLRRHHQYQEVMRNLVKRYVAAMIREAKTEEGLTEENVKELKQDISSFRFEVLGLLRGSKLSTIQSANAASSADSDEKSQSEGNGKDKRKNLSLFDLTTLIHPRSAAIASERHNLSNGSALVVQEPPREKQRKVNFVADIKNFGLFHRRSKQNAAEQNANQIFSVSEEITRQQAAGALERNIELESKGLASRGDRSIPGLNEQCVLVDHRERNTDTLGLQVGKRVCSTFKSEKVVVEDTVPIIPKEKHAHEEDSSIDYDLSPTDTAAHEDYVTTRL

[5] = molecular target: T3, Short transient receptor potential channel 4; assay: block of DAMGO-driven TRPC4 calcium entry – cell-based, HEK293 TRPC4/mu-opioid, Fluo-4 calcium, dose response (AID 434942); type: functional;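 note: potency of inhibitors blocking the TRPC4 calcium response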
[6] = Luminescence Cell-Based Dose Confirmation HTS to Identify Inhibitors of Platelet Dense Granule Release. [Related pubchem assays: 1663 (Primary HTS), 1678 (Summary of Project)]; type: functional
[7] = molecular target: T4, Cytochrome P450 1A2 (Homo sapiens, UniProt P05177);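 note: PubChem cytochrome P450 panel assay, CYP1A2 panel member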
T4 sequence (P05177 whole entry): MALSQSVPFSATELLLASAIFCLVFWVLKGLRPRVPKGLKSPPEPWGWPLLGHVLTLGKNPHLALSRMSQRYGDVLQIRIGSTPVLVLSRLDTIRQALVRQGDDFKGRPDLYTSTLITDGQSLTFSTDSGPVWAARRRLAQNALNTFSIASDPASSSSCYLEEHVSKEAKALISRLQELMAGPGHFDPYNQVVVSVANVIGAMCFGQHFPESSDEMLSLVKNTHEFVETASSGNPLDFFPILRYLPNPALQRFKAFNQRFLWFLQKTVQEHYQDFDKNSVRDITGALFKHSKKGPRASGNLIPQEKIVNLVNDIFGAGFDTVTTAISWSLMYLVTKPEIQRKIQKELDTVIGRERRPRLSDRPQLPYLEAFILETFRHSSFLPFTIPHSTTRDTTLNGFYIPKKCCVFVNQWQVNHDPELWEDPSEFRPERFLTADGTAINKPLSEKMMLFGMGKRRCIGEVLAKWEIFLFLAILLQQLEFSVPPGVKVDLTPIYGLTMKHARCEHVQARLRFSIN

[8] = molecular target: Cytochrome P450 2C19 (Homo sapiens, UniProt P33261); assay: Cytochrome panel assay with activity outcomes. Panel member name: p450-cyp2c19 Compounds with AC50 equal or less than 10 uM are considered active; type: functional; details: read-out: AC50
[9] = molecular target: Luciferin 4-monooxygenase (Photinus pyralis, UniProt P08659); assay: inhibition of purified Photinus pyralis luciferase – biochemical, luminescence, dose response (AID 1891)
[10] = molecular target: Cytochrome P450 2C9 (Homo sapiens, UniProt P11712)
[11] = molecular target: Paired box protein Pax-8 (Homo sapiens, UniProt Q06710); assay: PAX8 transcriptional activity inhibition in RMG-I – RMG-I cells, luciferase, cherry-pick, dose response (AID 687027); type: functional, cell-based;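 note: luciferase reporter driven by Pax8 target thyroperoxidase promoter measured by SteadyGlo luminescence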
[12] = molecular target: T5, Corticotropin-releasing factor receptor 2/Corticotropin-releasing factor-binding protein (Homo sapiens, UniProt P24387+Q13324); assay: activators of CRF receptor 2 with binding protein – uHTS hits, confirmation (AID 602473); type: functional; details: read-out: EC50_Mean
T5 sequence (Q13324 whole entry): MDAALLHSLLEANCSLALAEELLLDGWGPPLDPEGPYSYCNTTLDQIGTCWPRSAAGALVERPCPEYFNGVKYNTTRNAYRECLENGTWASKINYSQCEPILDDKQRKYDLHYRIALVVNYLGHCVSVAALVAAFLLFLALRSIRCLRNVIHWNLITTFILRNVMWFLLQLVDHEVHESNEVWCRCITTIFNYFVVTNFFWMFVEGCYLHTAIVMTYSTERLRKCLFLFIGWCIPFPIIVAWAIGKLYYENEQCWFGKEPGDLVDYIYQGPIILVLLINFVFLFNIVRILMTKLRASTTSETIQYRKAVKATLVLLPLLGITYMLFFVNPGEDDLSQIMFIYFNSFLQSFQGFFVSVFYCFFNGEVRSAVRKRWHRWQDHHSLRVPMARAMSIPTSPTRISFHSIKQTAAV
T5 sequence (P24387 whole entry): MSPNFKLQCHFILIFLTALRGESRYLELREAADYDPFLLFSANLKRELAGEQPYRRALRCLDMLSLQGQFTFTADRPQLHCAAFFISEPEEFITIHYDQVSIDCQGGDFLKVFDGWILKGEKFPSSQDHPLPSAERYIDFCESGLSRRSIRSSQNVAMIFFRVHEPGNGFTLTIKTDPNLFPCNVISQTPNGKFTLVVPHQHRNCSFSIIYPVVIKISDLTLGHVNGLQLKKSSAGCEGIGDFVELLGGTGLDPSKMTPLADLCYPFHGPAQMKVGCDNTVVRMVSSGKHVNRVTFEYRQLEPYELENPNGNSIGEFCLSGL

[13] = HIV-1 AD8 envelope cell-cell fusion blockers – cherry-pick, dose response (AID 652062); type: functional, cell-based;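 note: luciferase signal from cell-cell fusion driven by HIV-1 clade B AD8 Env; potency is for inhibitors of fusion seen as a drop in luminescence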
[14] = viability of uninfected HEp-2 cells – cell-based, HTS, cytotoxicity control for RSV inhibitor project, dose response (AID 2410); type: functional; details: human respiratory syncytial virus
[15] = tested on: Streptococcus sp. 'group A'; assay: Streptococcus pyogenes SK(-)GAS viability under kanamycin – luminescence, BacTiterGlo, confirmation, counter-screen for streptokinase expression inhibitor project, dose response (AID 1900); type: functional, organism-based
[16] = tested on: Streptococcus; assay: GAS UMAA2166 growth inhibition – luminescence, BacTiterGlo, counter-screen for streptokinase expression inhibitor project, dose response (AID 1915); type: functional, organism-based;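 note: potency for reduction of bacterial viability or growth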
[17] = molecular target: Heat shock protein HSP 90-alpha (Homo sapiens, UniProt P07900); type: functional, organism-based

Chain of Paired box protein Pax-8 (Q06710 whole entry): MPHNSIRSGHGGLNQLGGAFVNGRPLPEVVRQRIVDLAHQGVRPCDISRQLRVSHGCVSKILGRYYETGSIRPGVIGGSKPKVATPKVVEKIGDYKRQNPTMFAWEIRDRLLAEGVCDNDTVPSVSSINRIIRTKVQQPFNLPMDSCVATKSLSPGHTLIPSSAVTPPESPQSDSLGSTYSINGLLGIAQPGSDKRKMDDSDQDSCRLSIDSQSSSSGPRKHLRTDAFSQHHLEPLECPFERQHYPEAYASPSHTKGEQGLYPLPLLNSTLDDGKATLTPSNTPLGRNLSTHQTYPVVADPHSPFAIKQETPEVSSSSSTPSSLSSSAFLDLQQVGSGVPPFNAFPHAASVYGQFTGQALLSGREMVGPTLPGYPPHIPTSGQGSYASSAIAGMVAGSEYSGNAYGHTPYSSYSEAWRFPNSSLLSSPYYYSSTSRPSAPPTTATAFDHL
Chain of Glyceraldehyde-3-phosphate dehydrogenase (P04406 whole entry): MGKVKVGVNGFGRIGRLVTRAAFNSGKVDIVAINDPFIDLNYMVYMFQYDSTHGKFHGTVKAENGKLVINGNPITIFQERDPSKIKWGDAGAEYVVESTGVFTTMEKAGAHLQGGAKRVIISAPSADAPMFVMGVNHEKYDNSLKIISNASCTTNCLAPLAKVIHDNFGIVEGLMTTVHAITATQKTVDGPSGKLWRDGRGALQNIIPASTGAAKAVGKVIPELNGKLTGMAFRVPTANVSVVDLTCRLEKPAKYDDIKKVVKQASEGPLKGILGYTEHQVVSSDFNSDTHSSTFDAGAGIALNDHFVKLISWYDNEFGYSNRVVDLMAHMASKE
Chain of Luciferin 4-monooxygenase (P08659 whole entry): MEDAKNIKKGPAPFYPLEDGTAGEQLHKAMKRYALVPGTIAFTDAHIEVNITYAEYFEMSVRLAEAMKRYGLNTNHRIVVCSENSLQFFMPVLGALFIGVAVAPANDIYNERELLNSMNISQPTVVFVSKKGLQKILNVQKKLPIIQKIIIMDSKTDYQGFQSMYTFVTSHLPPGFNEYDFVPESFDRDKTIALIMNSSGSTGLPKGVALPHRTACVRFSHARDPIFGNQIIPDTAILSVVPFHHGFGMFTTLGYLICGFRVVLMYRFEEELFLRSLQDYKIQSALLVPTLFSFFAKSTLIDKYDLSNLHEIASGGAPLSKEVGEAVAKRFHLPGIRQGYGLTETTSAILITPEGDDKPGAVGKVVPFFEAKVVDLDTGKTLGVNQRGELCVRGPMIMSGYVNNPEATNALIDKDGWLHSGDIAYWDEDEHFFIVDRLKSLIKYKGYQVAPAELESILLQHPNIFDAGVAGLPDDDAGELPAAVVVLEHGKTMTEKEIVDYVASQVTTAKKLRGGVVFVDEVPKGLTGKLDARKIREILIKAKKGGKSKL
Chain of Cytochrome P450 2C9 (P11712 whole entry): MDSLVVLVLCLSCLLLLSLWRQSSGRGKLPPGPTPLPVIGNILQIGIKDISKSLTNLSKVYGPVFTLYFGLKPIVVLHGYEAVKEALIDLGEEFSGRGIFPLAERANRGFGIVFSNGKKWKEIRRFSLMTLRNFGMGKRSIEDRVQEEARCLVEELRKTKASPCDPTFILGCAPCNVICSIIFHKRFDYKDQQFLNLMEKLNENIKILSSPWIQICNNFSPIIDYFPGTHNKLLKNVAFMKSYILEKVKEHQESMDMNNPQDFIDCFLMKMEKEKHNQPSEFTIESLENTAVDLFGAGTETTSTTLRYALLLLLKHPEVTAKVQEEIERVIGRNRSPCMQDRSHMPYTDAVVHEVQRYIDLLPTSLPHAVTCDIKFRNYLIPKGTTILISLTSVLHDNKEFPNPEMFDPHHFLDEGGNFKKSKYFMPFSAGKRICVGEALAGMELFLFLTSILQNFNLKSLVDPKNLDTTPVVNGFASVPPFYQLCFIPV
Chain of Cytochrome P450 2C19 (P33261 whole entry): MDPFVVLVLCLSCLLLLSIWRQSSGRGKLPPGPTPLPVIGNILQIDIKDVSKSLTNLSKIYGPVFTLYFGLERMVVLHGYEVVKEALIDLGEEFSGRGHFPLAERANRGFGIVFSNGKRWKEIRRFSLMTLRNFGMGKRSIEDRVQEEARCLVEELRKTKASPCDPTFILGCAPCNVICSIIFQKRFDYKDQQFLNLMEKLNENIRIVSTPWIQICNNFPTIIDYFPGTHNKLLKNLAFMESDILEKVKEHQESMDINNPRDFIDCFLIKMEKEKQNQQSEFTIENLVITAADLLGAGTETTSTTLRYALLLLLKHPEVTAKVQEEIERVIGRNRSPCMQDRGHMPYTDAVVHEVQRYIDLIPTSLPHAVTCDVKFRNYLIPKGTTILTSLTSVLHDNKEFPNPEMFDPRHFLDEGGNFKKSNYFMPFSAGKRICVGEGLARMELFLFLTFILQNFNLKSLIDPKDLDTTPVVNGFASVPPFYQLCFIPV

Cc1cccc(N2C(=O)C(Cl)=C(N3CCN(c4ccccc4)CC3)C2=O)c1
IC50 [1]: > 50 µM (inconclusive)

Oc1cc(-c2ccccc2)c2ccccc2c1
EC50 [2]: 40.1 µM (active)
IC50 [3]: 14.4 µM (active)

CC1(C)CC(=O)c2cc(C(=O)NCc3ccco3)c(=O)n(-c3ccc(Cl)cc3)c2C1
EC50 [4]: 6.68 µM (active)

COc1ccc(N(C)C(=O)Nc2ccc3nsnc3c2)cc1
IC50 [3]: > 50 µM (not active)

O=C(NCCCN1CCN(c2cccc(Cl)c2)CC1)C1CCC(=O)N1Cc1ccccc1Cl (stereo unspecified)
EC50 [5]: 2.99 µM (active)
EC50 [6]: > 112 µM (not active)
AC50 [7]: 0.00631 µM (inconclusive)
AC50 [8]: 10 µM (inconclusive)
EC50 [9]: > 112 µM (not active)
AC50 [10]: 15.8 µM (inconclusive)

NS(=O)(=O)c1ccc(/N=C/C2=C(O)c3ccccc3C2=O)cc1
IC50 [1]: > 100 µM (not active)

COc1ccc(NC(=O)Nc2ccc3c(c2)CC(=O)N([C@@H](C)CO)C[C@@H](C)[C@@H](CN(C)Cc2ccc(Oc4ccccc4)cc2)O3)cc1
AC50 [11]: 25.3 µM (active)

O=C1C(Cl)=C(N2CCN(c3ncccn3)CC2)C(=O)N1c1ccc(C(F)(F)F)cc1
IC50 [1]: > 50 µM (inconclusive)

Cc1cc(C)c(C)c(OCCCN(C)C)c1
EC50 [4]: 0.168 µM (active)

CC1CC(C)(C)N(C(=O)CN2C(=O)c3ccccc3C2=O)c2ccccc21 (stereo unspecified)
EC50 [4]: 5.96 µM (active)
EC50 [5]: 4.22 µM (active)
EC50 [12]: 6.44 µM (active)

O=C1C(Cl)=C(N2CCN(c3ccccc3)CC2)C(=O)N1c1cccc(C(F)(F)F)c1
IC50 [1]: > 50 µM (inconclusive)

C[C@@H]1CCCCO[C@@H](CN(C)C(=O)Nc2ccccc2)[C@H](C)CN([C@H](C)CO)C(=O)c2cc(NC(=O)Nc3ccc(C(F)(F)F)cc3)ccc2O1
AC50 [11]: 3.07 µM (active)

c1ccc(Cn2nnnc2C(c2cccnc2)N2CCN(C3CCCCC3)CC2)cc1 (stereo unspecified)
EC50 [4]: 1.68 µM (active)

CC(C)(C)[C@H]1C=C(C(=O)NCc2ccccc2)O[C@@H](OCc2ccc(CO)cc2)C1
EC50 [4]: 9.44 µM (active)

CCC(C)C1=CC(=Nc2c(C)n(C)n(-c3ccccc3)c2=O)C=C(C(C)CC)C1=O (stereo unspecified)
IC50 [3]: > 50 µM (not active)

Cc1ccc(S(=O)(=O)Nc2cccc(C(=O)NCC(c3ccccc3)N(C)C)c2)cc1F (stereo unspecified)
EC50 [4]: 5.31 µM (active)
EC50 [5]: 0.267 µM (active)

CC1CCCN(C(=O)c2ccc(S(=O)(=O)N3CCC(c4nc5ccccc5s4)CC3)cc2)C1 (stereo unspecified)
AC50 [13]: 5.85 µM (active)

Cc1cc(OCCn2ccnc2)cc(C)c1Cl
EC50 [4]: 3.76 µM (active)

CCOc1ccc(CN2CCNC(=O)C2CC(=O)NCCc2ccccn2)cc1 (stereo unspecified)
EC50 [4]: 6.68 µM (active)

Cc1nc(Cl)c(Cl)n1CCOc1ccccc1
EC50 [5]: 5.31 µM (active)
CC50 [14]: 20.9 µM (active)

Cc1cc(C=C2C(=O)N(C)C(=S)N(C)C2=O)c(C)n1-c1cccnc1
IC50 [3]: > 50 µM (not active)

COc1ccc(S(=O)(=O)N(C)C[C@H]2Oc3ccc(NC(=O)Nc4ccc(C(F)(F)F)cc4)cc3CC(=O)N([C@H](C)CO)C[C@@H]2C)cc1
AC50 [11]: 11.9 µM (active)

O=C(O)c1ccc(N/N=C/c2ccc(-c3cccc(Cl)c3)o2)cc1
EC50 [5]: 4.73 µM (active)
EC50 [15]: 3.86 µM (active)
EC50 [16]: 10.7 µM (active)
AC50 [17]: 8 µM (active)
